Results: patent publication US20260000656A1, “ANTIFUNGAL AGENTS WITH ENHANCED ACTIVITY IN ACIDIC PH” (Scynexis, Inc., priority 2017, published 2026)
Where two headings read alike, the source gives them in different places.

Tested on: C. albicans isolates
Assay: Broth microdilution susceptibility (CLSI M27-A3) at different medium pH
Type: cell-based, Candida albicans
Details: Candida albicans, 24 h; for MIC50: read-out: MIC50; for MIC90: read-out: MIC90
Protocol: Ten strains each of C. glabrata and C. albicans vaginal isolates were tested. The strains were obtained from recent clinical trial patients with vulvovaginal candidiasis (VVC) prior to treatment. Candida strains were obtained from the Mycology Reference Library (MRL) at Case Western Reserve University School of Medicine, Ohio, United States.
Susceptibility testing was performed using a broth microdilution method, according to CLSI M27-A3 guidelines (CLSI. 2008. Reference Method for Broth Dilution Antifungal Susceptibility Testing of Yeasts; Approved Standard—Third Edition. Clinical and Laboratory Standards Institute, CLSI document M27-A3). Antifungals and concentrations tested were SCY-078 and micafungin (both at concentrations within the range of 0.015 to 8 μg/ml) and fluconazole (at concentrations within the range of 0.125 to 64 μg/ml). A 0.1-ml C. albicans and C. glabrata inoculum of 0.5-2.5×10^3 blastospores/ml in RPMI 1640 medium was added to each microdilution well. ATCC strains of Candida parapsilosis and Candida krusei QC isolates were also included concurrently to ensure quality control. Antifungal susceptibility testing was carried out for each isolate in RPMI 1640 at pH 7 (to mimic RPMI medium used in testing the susceptibility of yeast by the CLSI M-27A3 document), pH 5.7, and pH 4.5 (to mimic the pH of the vaginal cavity) by adjusting the pH of the media using NaOH or HCl. […] Agents Chemother., 43: 1383-1386 (1999).
[…] SCY-078 powder was manufactured by Avista, Laboratories, NC. Micafungin and fluconazole were sourced from LGM Pharma.

[1] = pH 7, 50% inhibition, pH 7.0, 24 h, 10 vaginal isolates
[2] = pH 7, 100% inhibition, pH 7.0, 24 hours, 10 isolates

CC(C)[C@@H](C)[C@@]1(C)CC[C@]2(C)[C@H]3CC[C@@H]4[C@@]5(COC[C@]4(C)[C@@H](OC[C@](C)(N)C(C)(C)C)[C@H](n4ncnc4-c4ccncc4)C5)C3=CC[C@@]2(C)[C@@H]1C(=O)O [SCY-078]
2 µg/mL: MIC (pH 5.72, C. albicans MRL 34408, pH 5.72, 24 hours, read-out: MIC (100% inhibition))
4 µg/mL: MIC (pH 7, C. albicans MRL 34408, pH 7.0, 24 hours, read-out: MIC (100% inhibition))
0.5 µg/mL: MIC (pH 5.72, C. albicans MRL 34385, pH 5.72, 24 hours, read-out: MIC (100% inhibition)) | MIC90 [1] | MIC90 [2] | MIC (pH 7, C. albicans MRL 34366, pH 7.0, 24 hours, read-out: MIC (50% inhibition)) | MIC (pH 7, C. albicans MRL 34366, pH 7.0, 24 hours, read-out: MIC (100% inhibition)) | MIC (pH 7, C. albicans MRL 34367, pH 7.0, 24 hours, read-out: MIC (100% inhibition)) | MIC (pH 7, C. albicans MRL 34385, pH 7.0, 24 hours, read-out: MIC (100% inhibition)) | MIC (pH 7, C. albicans MRL 34408, pH 7.0, 24 hours, read-out: MIC (50% inhibition)) | MIC (pH 7, C. albicans MRL 34449, pH 7.0, 24 hours, read-out: MIC (100% inhibition))
0.25 µg/mL: MIC (pH 5.72, C. albicans MRL 34372, pH 5.72, 24 hours, read-out: MIC (50% inhibition)) | MIC (pH 5.72, C. albicans MRL 34372, pH 5.72, 24 hours, read-out: MIC (100% inhibition)) | MIC (pH 5.72, C. albicans MRL 34373, pH 5.72, 24 hours, read-out: MIC (50% inhibition)) | MIC (pH 5.72, C. albicans MRL 34373, pH 5.72, 24 hours, read-out: MIC (100% inhibition)) | MIC (pH 5.72, C. albicans MRL 34374, pH 5.72, 24 hours, read-out: MIC (100% inhibition)) | MIC (pH 5.72, C. albicans MRL 34385, pH 5.72, 24 hours, read-out: MIC (50% inhibition)) | MIC (pH 5.72, C. albicans MRL 34389, pH 5.72, 24 hours, read-out: MIC (50% inhibition)) | MIC (pH 5.72, C. albicans MRL 34389, pH 5.72, 24 hours, read-out: MIC (100% inhibition)) | MIC (pH 5.72, C. albicans MRL 34399, pH 5.72, 24 hours, read-out: MIC (50% inhibition)) | MIC (pH 5.72, C. albicans MRL 34399, pH 5.72, 24 hours, read-out: MIC (100% inhibition)) | MIC (pH 5.72, C. albicans MRL 34408, pH 5.72, 24 hours, read-out: MIC (50% inhibition)) | MIC (pH 5.72, C. albicans MRL 34449, pH 5.72, 24 hours, read-out: MIC (50% inhibition)) | MIC (pH 5.72, C. albicans MRL 34449, pH 5.72, 24 hours, read-out: MIC (100% inhibition)) | MIC50 [1] | MIC50 [2] | MIC (pH 7, C. albicans MRL 34372, pH 7.0, 24 hours, read-out: MIC (50% inhibition)) | MIC (pH 7, C. albicans MRL 34372, pH 7.0, 24 hours, read-out: MIC (100% inhibition)) | MIC (pH 7, C. albicans MRL 34373, pH 7.0, 24 hours, read-out: MIC (50% inhibition)) | MIC (pH 7, C. albicans MRL 34373, pH 7.0, 24 hours, read-out: MIC (100% inhibition)) | MIC (pH 7, C. albicans MRL 34374, pH 7.0, 24 hours, read-out: MIC (50% inhibition)) | MIC (pH 7, C. albicans MRL 34374, pH 7.0, 24 hours, read-out: MIC (100% inhibition)) | MIC (pH 7, C. albicans MRL 34385, pH 7.0, 24 hours, read-out: MIC (50% inhibition)) | MIC (pH 7, C. albicans MRL 34389, pH 7.0, 24 hours, read-out: MIC (100% inhibition)) | MIC (pH 7, C. albicans MRL 34399, pH 7.0, 24 hours, read-out: MIC (50% inhibition)) | MIC (pH 7, C. albicans MRL 34399, pH 7.0, 24 hours, read-out: MIC (100% inhibition)) | MIC (pH 7, C. albicans MRL 34449, pH 7.0, 24 hours, read-out: MIC (50% inhibition))
0.125 µg/mL: MIC (pH 5.72, C. albicans MRL 34374, pH 5.72, 24 hours, read-out: MIC (50% inhibition)) | MIC (pH 7, C. albicans MRL 34367, pH 7.0, 24 hours, read-out: MIC (50% inhibition)) | MIC (pH 7, C. albicans MRL 34389, pH 7.0, 24 hours, read-out: MIC (50% inhibition))
